Laboratory results reported in patent US5852210A, “Cinnamic acid derivatives” (G. D. Searle & Co., priority 1997, dated 1998).
pIC50: −log10 of the molar value. Where a name gives a salt, the structure may show the parent alone.

Legend:
[1] = biological target: T1, Human vitronectin receptor (αv β3) (Homo sapiens, UniProt P05106+P06756); experiment: Vitronectin adhesion assay (solid phase receptor assay, αvβ3); format: binding; settings: inhibition of binding of biotinylated human vitronectin (1 nM) to purified receptor; Table I; read-out: AvB3 IC50
T1 construct: Human vitronectin receptor (αv β3) was purified from human placenta; from tissue; host or cells: human placenta
Experimental: (§1) The activity of the compounds of the present invention was tested in the following assays.
Human vitronectin receptor (αv β3) was purified from human placenta as previously described [Pytela et al., Methods in Enzymology, 144:475-489 (1987)]. Human vitronectin was purified from fresh frozen plasma as previously described [Yatohgo et al., Cell Structure and Function, 13:281-292 (1988)]. Biotinylated human vitronectin was prepared by coupling NHS-biotin from Pierce Chemical Company (Rockford, Ill.) to purified vitronectin as previously described [Charo et al., J. Biol. Chem., 266(3):1415-1421 (1991)]. Assay buffer, OPD substrate tablets, and RIA grade BSA were obtained from Sigma (St. Louis, Mo.). Anti-biotin antibody was obtained from Calbiochem (La Jolla, Calif.). Linbro microtiter plates were obtained from Flow Labs (McLean, Va.). ADP reagent was obtained from Sigma (St. Louis, Mo.).
(§2) Solid Phase Receptor Assays
This assay was essentially the same as previously reported [Niiya et al., Blood, 70:475-483 (1987)]. The purified human vitronectin receptor (αv β3) was diluted from stock solutions to […] in Tris-buffered saline containing 1.0 mM Ca^++, Mg^++, and Mn^++, pH 7.4 (TBS^+++). The diluted receptor was immediately transferred to Linbro microtiter plates at 100 μL/well (100 ng receptor/well). The plates were sealed and incubated overnight at 4° C. to allow the receptor to bind to the wells. All remaining steps were at room temperature. The assay plates were emptied and 200 μL, of 1% RIA grade BSA in TBS^+++ (TBS^+++ /BSA) were added to block exposed plastic surfaces. Following a 2 hour incubation, the assay plates were washed with TBS^+++ using a 96 well plate washer. Logarithmic serial dilution of the test compound and controls were made starting at a stock concentration of 2 mM and using 2 nM biotinylated vitronectin in TBS^+++ /BSA as the diluent. This premixing of labeled ligand with test (or control) ligand, and subsequent transfer of 50 μL aliquots to the assay plate was carried out with a CETUS Propette robot; the final concentration of the labeled ligand was 1 nM and the highest concentration of test compound was 1.0×10^-4 M. The competition occurred for two hours after which all wells were washed with a plate washer as before. Affinity purified horseradish peroxidase labeled goat anti-biotin antibody was diluted 1:3000 in TBS^+++ /BSA and 125 μL were added to each well. After 30 minutes, the plates were washed and incubated with OPD/H2 O2 substrate in 100 mM/L Citrate buffer, pH 5.0. The plate was read with a microtiter plate reader at a wavelength of 450 nm and when the maximum-binding control wells reached an absorbance of about 1.0, the final A450 were recorded for analysis. The data were analyzed using a macro written for use with the EXCEL™ spreadsheet program. The mean, standard deviation, and % CV were determined for duplicate concentrations. The mean A450 values were normalized to the mean of four maximum-binding controls (no competitor added) (B-MAX). The normalized values were subjected to a four parameter curve fit algorithm [Rodbard et al., Int.

[2] = biological target: T2, Human fibrinogen receptor (αIIb β3) (Homo sapiens, UniProt P05106+P08514); experiment: Purified IIb/IIIa receptor assay (solid phase receptor assay); settings: inhibition of binding of biotinylated human vitronectin (1 nM) to purified receptor; Table I
T2 construct: Human fibrinogen receptor (αIIb β3) was purified from outdated platelets; from tissue; host or cells: human outdated platelets
Experimental: as §1
Human fibrinogen receptor (αIIb β3) was purified from outdated platelets. (Pytela, R., Pierschbacher, M. D., Argraves, S., Suzuki, S., and Rouslahti, E. "Arginine-Glycine-Aspartic acid adhesion receptors", Methods in Enzymology 144(1987):475-489.) Human vitronectin was purified from fresh frozen plasma as described in Yatohgo, T., Izumi, M., Kashiwagi, H., and Hayashi, M., "Novel purification of vitronectin from human plasma by heparin affinity chromatography," Cell Structure and Function 13(1988):281-292. Biotinylated human vitronectin was prepared by coupling NHS-biotin from Pierce Chemical Company (Rockford, Ill.) to purified vitronectin as previously described. (Charo, I. F., Nannizzi, L., Phillips, D. R., Hsu, M. A., Scarborough, R. M., "Inhibition of fibrinogen binding to GP IIb/IIIa by a GP IIIa peptide", J. Biol. Chem. 266(3) (1991): 1415-1421.) Assay buffer, OPD substrate tablets, and RIA grade BSA were obtained from Sigma (St. Louis, Mo.). Anti-biotin antibody was obtained from Calbiochem (La Jolla, Calif.). Linbro microtiter plates were obtained from Flow Labs (McLean, Va.). ADP reagent was obtained from Sigma (St. Louis, Mo.).
as §2
This assay is essentially the same reported in Niiya, K., Hodson, E., Bader, R., Byers-Ward, V. Koziol, J. A., Plow, E. F. and Ruggeri, Z. M., "Increased surface expression of the membrane glycoprotein IIb/IIIa complex induced by platelet activation: Relationships to the binding of fibrinogen and platelet aggregation", Blood 70 (1987):475-483. The purified human fibrinogen receptor (αIIb β3) was diluted from stock solutions to 1.0 μg/mL in Tris-buffered saline containing 1.0 mM Ca^++, Mg^++, and Mn^++, pH 7.4 (TBS^+++). The diluted receptor was immediately transferred to Linbro microtiter plates at 100 μL/well (100 ng receptor/well). The plates were sealed and incubated overnight at 4° C. to allow the receptor to bind to the wells. All remaining steps were at room temperature. The assay plates were emptied and 200 μL of 1% RIA grade BSA in TBS^+++ (TBS^+++ /BSA) were added to block exposed plastic surfaces. Following a 2 hour incubation, the assay plates were washed with TBS^+++ using a 96 well plate washer. Logarithmic serial dilution of the test compound and controls were made starting at a stock concentration of 2 mM and using 2 nM biotinylated vitronectin in TBS^+++ /BSA as the diluent. This premixing of labeled ligand with test (or control) ligand, and subsequent transfer of 50 μL aliquots to the assay plate was carried out with a CETUS Propette robot; the final concentration of the labeled ligand was 1 nM and the highest concentration of test compound was 1.0×10^-4 M. The competition occurred for two hours after which all wells were washed with a plate washer as before. Affinity purified horseradish peroxidase labeled goat anti-biotin antibody was diluted 1:3000 in TBS^+++ /BSA and 125 μL were added to each well. After 30 minutes, the plates were washed and incubated with […]/H2 O2 substrate in 100 mM/L citrate buffer, pH 5.0. The plate was read with a microtiter plate reader at a wavelength of 450 nm and when the maximum-binding control wells reached an absorbance of about 1.0, the final A450 were recorded for analysis. The data were analyzed using a macro written for use with the EXCEL™ spreadsheet program. The mean, standard deviation, and % CV were determined for duplicate concentrations. The mean A450 values were normalized to the mean of four maximum-binding controls (no competitor added) (B-MAX). The normalized values were subjected to a four parameter curve fit algorithm, [Robard et al., Int.

T1 sequence (P06756 31-889 limits assumed): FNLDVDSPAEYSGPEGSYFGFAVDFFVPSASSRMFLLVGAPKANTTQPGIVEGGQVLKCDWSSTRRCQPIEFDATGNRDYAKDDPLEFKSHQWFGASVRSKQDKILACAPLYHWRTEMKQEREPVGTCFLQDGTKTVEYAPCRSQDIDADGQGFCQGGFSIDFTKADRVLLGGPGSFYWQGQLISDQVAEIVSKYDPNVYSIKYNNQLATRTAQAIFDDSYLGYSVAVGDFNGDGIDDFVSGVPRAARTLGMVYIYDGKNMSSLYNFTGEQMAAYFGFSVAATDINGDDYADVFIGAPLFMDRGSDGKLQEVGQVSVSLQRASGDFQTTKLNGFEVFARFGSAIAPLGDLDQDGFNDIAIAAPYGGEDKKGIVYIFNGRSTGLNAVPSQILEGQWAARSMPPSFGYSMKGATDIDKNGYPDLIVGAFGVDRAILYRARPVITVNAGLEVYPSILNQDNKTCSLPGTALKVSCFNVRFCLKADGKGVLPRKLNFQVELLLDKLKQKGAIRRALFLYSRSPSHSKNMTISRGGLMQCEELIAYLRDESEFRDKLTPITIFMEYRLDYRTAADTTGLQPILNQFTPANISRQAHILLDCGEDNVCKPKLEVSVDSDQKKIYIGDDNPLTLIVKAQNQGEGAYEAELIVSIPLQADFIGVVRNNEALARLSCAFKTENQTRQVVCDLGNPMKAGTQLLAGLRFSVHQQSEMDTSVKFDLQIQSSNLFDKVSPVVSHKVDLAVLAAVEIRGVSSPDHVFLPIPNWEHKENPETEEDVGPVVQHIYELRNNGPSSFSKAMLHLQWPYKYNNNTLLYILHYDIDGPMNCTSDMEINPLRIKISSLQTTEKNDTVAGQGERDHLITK
T1 sequence (P06756 891-1048 limits assumed): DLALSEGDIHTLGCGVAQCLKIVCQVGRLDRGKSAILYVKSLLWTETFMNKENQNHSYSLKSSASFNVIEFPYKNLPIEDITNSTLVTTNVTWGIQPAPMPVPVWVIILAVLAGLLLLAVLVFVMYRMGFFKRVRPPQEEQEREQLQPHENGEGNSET
T1 sequence (P05106 27-788): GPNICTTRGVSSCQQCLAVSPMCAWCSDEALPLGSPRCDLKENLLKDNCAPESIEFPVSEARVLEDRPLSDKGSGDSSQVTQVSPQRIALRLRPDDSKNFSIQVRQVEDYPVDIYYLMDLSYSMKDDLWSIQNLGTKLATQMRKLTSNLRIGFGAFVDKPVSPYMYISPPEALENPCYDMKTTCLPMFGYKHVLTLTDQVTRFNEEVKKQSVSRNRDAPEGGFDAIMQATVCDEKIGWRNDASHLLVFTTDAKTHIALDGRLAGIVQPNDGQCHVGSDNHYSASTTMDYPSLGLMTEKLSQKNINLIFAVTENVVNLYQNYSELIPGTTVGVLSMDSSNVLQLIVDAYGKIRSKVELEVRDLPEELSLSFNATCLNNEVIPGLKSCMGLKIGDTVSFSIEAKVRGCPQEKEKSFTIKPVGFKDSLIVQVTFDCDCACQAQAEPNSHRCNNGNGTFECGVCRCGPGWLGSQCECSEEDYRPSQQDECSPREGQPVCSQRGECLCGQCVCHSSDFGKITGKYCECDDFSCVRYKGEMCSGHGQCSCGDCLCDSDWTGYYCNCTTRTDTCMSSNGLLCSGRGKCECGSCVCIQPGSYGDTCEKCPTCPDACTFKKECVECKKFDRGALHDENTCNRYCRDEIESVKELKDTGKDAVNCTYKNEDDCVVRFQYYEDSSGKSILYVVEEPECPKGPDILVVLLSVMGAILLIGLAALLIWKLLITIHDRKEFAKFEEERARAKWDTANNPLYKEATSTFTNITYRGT
T2 sequence (P08514 32-887 limits assumed): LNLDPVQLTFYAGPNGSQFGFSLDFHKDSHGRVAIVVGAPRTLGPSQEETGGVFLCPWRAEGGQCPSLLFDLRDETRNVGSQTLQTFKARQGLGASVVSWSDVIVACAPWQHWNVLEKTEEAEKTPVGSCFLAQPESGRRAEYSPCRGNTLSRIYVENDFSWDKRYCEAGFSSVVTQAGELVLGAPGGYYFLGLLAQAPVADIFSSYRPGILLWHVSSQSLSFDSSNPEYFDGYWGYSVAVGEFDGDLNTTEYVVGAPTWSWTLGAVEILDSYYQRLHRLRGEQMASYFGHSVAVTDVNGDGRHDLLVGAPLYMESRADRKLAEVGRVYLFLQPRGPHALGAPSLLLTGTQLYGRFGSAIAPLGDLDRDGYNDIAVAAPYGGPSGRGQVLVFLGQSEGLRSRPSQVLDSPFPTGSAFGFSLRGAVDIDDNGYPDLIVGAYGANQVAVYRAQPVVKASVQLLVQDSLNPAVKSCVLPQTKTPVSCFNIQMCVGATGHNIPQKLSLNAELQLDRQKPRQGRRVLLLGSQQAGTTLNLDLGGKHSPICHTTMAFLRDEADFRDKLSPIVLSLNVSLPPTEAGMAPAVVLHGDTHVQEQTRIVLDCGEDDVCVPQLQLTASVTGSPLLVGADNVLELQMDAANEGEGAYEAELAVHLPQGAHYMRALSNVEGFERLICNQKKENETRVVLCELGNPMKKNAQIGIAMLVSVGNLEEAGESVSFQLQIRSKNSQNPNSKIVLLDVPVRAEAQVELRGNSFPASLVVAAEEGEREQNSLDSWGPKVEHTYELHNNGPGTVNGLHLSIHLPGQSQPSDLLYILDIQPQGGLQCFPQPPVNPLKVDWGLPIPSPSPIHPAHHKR
T2 sequence (P08514 891-1039 limits assumed): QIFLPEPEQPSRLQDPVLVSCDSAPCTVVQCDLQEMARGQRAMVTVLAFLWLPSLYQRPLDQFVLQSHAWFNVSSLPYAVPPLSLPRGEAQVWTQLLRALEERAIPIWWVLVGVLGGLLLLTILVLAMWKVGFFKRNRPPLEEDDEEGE
T2 sequence (P05106 27-788): as the sequence (P05106 27-788) above

SMILES	pIC50 [1]	pIC50 [2]
CCc1cc(/C=C/C(=O)O)ccc1NC(=O)c1cccc(NC2=NCCCN2)c1 [Example 19, 3-[3-ethyl-4-[[[3-[(1,4,5,6-tetrahydropyrimidin-2-yl)amino]phenyl]carbonyl]amino]phenyl]propenoic acid, trifluoroacetate salt]	9.28	6.36
CCc1cc(/C=C/C(=O)O)ccc1NC(=O)c1cccc(NC2=NCCN2)c1 [Example 21, 3-[4-[[[3-[(4,5-dihydro-1H-imidazol-2-yl)amino]-phenyl]carbonyl]amino]-3-ethylphenyl]propenoic acid, trifluoroacetate salt]	9.31	6.90
O=C(O)/C=C/c1ccc(NC(=O)c2cccc(NC3=NCCCN3)c2)c(Cl)c1 [Example 22, 3-[3-chloro-4-[[[3-[(1,4,5,6-tetrahydropyrimidin-2-yl)amino]phenyl]carbonyl]amino]phenyl]propenoic acid, trifluoroacetate salt]	9.32	6.63
Cc1cc(/C=C/C(=O)O)cc(C)c1NC(=O)c1cccc(NC2=NCCCN2)c1 [Example 24, 3-[3,5-dimethyl-4-[[[3-[(1,4,5,6-tetrahydropyrimidin-2-yl)amino]phenyl]carbonyl]amino]phenyl]-2E-propenoic acid, bis(trifluoroacetate salt)]	8.31	5.08
Cc1cc(/C=C/C(=O)O)cc(C)c1NC(=O)c1cccc(NC2=NCCN2)c1 [Example 25, 3-[4-[[[3-[(4,5-dihydroimidazol-2-yl)amino]-phenyl]carbonyl]amino]-3,5-dimethylphenyl]-2E-propenoic acid, trifluoroacetate salt]	8.55	5.74
COc1cc(NC(=O)c2cccc(NC(=N)N)c2)ccc1/C=C/C(=O)O [Example 31, 3-[4-[[[3-(aminoiminomethyl)amino]phenyl]carbonyl]-amino]-2-methoxyphenyl]propenoic acid, trifluoroacetate salt]	8.02	7.16
N=C(N)Nc1cccc(C(=O)Nc2ccc(/C=C/C(=O)O)c(C(=O)O)c2)c1 [Example 36, 5-[[[3-[(aminoiminomethyl)amino]phenyl]carbonyl]amino]-2-(2-carboxyethenyl)benzoic acid, trifluoroacetate salt]	8.91	8.04
COC(=O)c1cc(NC(=O)c2cccc(NC(=N)N)c2)ccc1/C=C/C(=O)O [Example 37, methyl 5-[[[3-[(aminoiminomethyl)amino]phenyl]carbonyl]amino]-2-(2-carboxyethenyl)benzoate, trifluoroacetate salt]	7.49	7.10
COC(=O)c1cc(NC(=O)c2cccc(NC3=NCCCN3)c2)ccc1/C=C/C(=O)O [Example 40B, methyl 2-(2-carboxyethenyl)-5-[[[3-[(1,4,5,6-tetrahydropyrimidin-2-yl)amino]phenyl]carbonyl]amino]benzoate, trifluoroacetate salt]	8.24	6.09

The remaining lines, values ahead:

pIC50 [1]	pIC50 [2]	SMILES
9.51	7.10	O=C(O)/C=C/c1ccc(NC(=O)c2cccc(NC3=NCCN3)c2)c(Cl)c1 [Example 23, 3-[3-chloro-4-[[[3-[(4,5-dihydro-1H-imidazol-2-yl)amino]-phenyl]carbonyl]amino]phenyl]-2E-propenoic acid, trifluoroacetate salt]
6.69	< 4.00	Cc1cc(/C=C/C(=O)O)cc(C)c1NC(=O)c1cccc(NC(N)=O)c1 [Example 27, 3-[4-[[[3-[(aminocarbonyl)amino]phenyl]carbonyl]-amino]-3,5-dimethylphenyl]propenoic acid, trifluoroacetate salt]
5.74	4.60	N=C(N)Nc1cccc(C(=O)Nc2cc(Cl)c(/C=C/C(=O)O)c(Cl)c2)c1 [Example 29, 3-[4-[[[3-[(aminoiminomethyl)amino]phenyl]carbonyl]-amino]-2,6-dichlorophenyl]propenoic acid, dihydrochloride dihydrate]
7.13	6.92	Cc1cc(NC(=O)c2cccc(NC(=N)N)c2)ccc1/C=C/C(=O)O [Example 33, 3-[4-[[[3-[(aminoiminomethyl)amino]phenyl]carbonyl]-amino]-2-methylphenyl]propenoic acid, trifluoroacetate salt]
6.91	6.82	N=C(N)Nc1cccc(C(=O)Nc2ccc(/C=C/C(=O)O)c(C(F)(F)F)c2)c1 [Example 35, trifluoroacetate salt]
9.35	7.01	O=C(O)/C=C/c1ccc(NC(=O)c2cccc(NC3=NCCCN3)c2)cc1C(=O)O [Example 40A, 2-(2-carboxyethenyl)-5-[[[3-[(1,4,5,6-tetrahydropyrimidin-2-yl)amino]phenyl]carbonyl]amino]benzoic acid, trifluoroacetate salt]
6.75	4.69	COC(=O)/C=C/c1ccc(NC(=O)c2cccc(NC3=NCCCN3)c2)cc1C(=O)O [Example 40C, 2-[2-(methoxycarbonyl)ethenyl]-5-[[[3-[(1,4,5,6-tetrahydropyrimidin-2-yl)amino]phenyl]carbonyl]amino]benzoic acid, trifluoroacetate salt]
